Measurements as given in patent US8404708B2, “Dual NK1/NK3 receptor antagonists” (Hoffmann-La Roche Inc., priority 2004, dated 2013).
Like-named read-outs stand apart in the source and are kept apart here.

Legend:
human NK1 receptor = human NK1 receptor (Homo sapiens, UniProt P25103); assay: NK1 receptor binding, [3H]substance P displacement, CHO cell membranes
[1] = target: T1, Recombinant human NK3 (hNK3) receptor (Homo sapiens, UniProt P29371); assay: NK3 receptor binding, [3H]SR142801 displacement, membrane preparations
T1 construct: expressed in transfected cells
T1 sequence (P29371 1-465): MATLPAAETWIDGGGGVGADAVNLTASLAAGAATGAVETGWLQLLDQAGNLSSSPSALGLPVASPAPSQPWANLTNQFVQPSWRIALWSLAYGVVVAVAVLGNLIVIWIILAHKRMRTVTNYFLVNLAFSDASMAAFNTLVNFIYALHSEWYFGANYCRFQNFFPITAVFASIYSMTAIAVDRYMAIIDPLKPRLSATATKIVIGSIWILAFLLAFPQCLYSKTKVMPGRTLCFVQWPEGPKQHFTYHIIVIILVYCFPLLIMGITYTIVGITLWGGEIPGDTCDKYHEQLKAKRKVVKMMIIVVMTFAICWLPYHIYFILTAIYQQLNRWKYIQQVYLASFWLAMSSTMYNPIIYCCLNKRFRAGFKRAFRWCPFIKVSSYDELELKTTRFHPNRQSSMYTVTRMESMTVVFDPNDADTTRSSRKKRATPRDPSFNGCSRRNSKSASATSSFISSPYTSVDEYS
Procedure, shortened: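 Room-temperature, 90-min filtration binding assay using about 2.5 μg recombinant receptor membranes per well; separation on polyethyleneimine-treated glass-fibre (GF/C) filters and liquid scintillation read-out, with 10 μM SB222200 for nonspecific binding.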

[2] = first value of the cell NK1/NK3, read-out: pKi NK1 (converted)
[3] = second value of the cell NK1/NK3, read-out: pKi NK3 (converted)
[4] = first value of the cell pKi NK1/NK3, human NK1 receptor, [3H]substance P
[5] = second value of the cell pKi NK1/NK3, hNK3 receptor, [3H]SR142801

Chain of human NK1 receptor (P25103 whole entry): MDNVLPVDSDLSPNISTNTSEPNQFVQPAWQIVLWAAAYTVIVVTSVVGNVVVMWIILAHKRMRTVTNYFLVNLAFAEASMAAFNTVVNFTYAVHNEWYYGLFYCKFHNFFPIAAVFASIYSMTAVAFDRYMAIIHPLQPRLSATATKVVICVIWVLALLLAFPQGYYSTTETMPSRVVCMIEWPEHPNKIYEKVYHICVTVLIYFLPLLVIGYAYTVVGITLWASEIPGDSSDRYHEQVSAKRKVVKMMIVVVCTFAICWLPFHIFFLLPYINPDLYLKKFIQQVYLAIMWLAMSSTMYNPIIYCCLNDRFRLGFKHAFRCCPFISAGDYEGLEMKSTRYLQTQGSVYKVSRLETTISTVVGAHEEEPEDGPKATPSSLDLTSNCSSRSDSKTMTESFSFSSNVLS

Row | SMILES | Ki (human NK1 receptor; [2]) [nM] | Ki [1, 3] [nM] | Ki (human NK1 receptor; [4]) [nM] | Ki [1, 5] [nM]
1 | COc1ccccc1-c1cc(N2CC[C@H](O)[C@H]2CO)ncc1N(C)C(=O)C(C)(C)c1cc(C(F)(F)F)cc(C(F)(F)F)c1 [Example 263, (2R,3S)-2-(3,5-Bis-trifluoromethyl-phenyl)-N-[6-(3-hydroxy-2-hydroxymethyl-pyrrolidin-1-yl)-4-(2-methoxy-phenyl)-pyridin-3-yl]-N-methyl-isobutyramide] | 1.02 | 1.35 | – | –
2 | Cc1ccccc1-c1cc(N2C[C@@H](O)C[C@H]2CO)ncc1N(C)C(=O)C(C)(C)c1cc(C(F)(F)F)cc(C(F)(F)F)c1 [Example 241, (2S,4S)-2-(3,5-Bis-trifluoromethyl-phenyl)-N-[6-(4-hydroxy-2-hydroxymethyl-pyrrolidin-1-yl)-4-o-tolyl-pyridin-3-yl]-N-methyl-isobutyramide] | 1.45 | 1.62 | – | –
3 | CN(C(=O)C(C)(C)c1cc(C(F)(F)F)cc(C(F)(F)F)c1)c1cnc(N2C[C@@H](O)C[C@H]2CO)cc1-c1cccc(F)c1 [Example 251, (2S,4S)-2-(3,5-Bis-trifluoromethyl-phenyl)-N-[4-(3-fluoro-phenyl)-6-(4-hydroxy-2-hydroxymethyl-pyrrolidin-1-yl)-pyridin-3-yl]-N-methyl-isobutyramide] | 1.32 | 8.91 | – | –
4 | CN(C(=O)C(C)(C)c1cc(C(F)(F)F)cc(C(F)(F)F)c1)c1cnc(N2C[C@H](O)C[C@H]2CO)cc1-c1ccccc1C=O [Example 224, (2S,4R)-2-(3,5-Bis-trifluoromethyl-phenyl)-N-[4-(2-formyl-phenyl)-6-(4-hydroxy-2-hydroxymethyl-pyrrolidin-1-yl)-pyridin-3-yl]-N-methyl-isobutyramide] | 1.12 | 1.51 | – | –
5 | Cc1cc(F)ccc1-c1cc(N2CC=C[C@H]2CO)ncc1N(C)C(=O)C(C)(C)c1cc(C(F)(F)F)cc(C(F)(F)F)c1 [Example 157, (S)-2-(3,5-Bis-trifluoromethyl-phenyl)-N-[4-(4-fluoro-2-methyl-phenyl)-6-(2-hydroxymethyl-2,5-dihydro-pyrrol-1-yl)-pyridin-3-yl]-N-methyl-isobutyramide] | – | – | 2.51 | 1.58
6 | CN(CC(O)CO)c1cc(-c2ccccc2Cl)c(N(C)C(=O)C(C)(C)c2cc(C(F)(F)F)cc(C(F)(F)F)c2)cn1 (racemic) [Example 58, (RS)-2-(3,5-Bis-trifluoromethyl-phenyl)-N-{4-(2-chloro-phenyl)-6-[(2,3-dihydroxy-propyl)-methyl-amino]-pyridin-3-yl}-N-methyl-isobutyramide] | – | – | 2.4 | 5.75
7 | Cc1ccccc1-c1cc(N2C[C@H](O)[C@@H](O)C2)ncc1N(C)C(=O)C(C)(C)c1cc(C(F)(F)F)cc(C(F)(F)F)c1 [Example 183, (3S,4S)-2-(3,5-Bis-trifluoromethyl-phenyl)-N-[6-(3,4-dihydroxy-pyrrolidin-1-yl)-4-o-tolyl-pyridin-3-yl]-N-methyl-isobutyramide] | – | – | 1.1 | 26.9
8 | Cc1ncccc1-c1cc(N(CCO)CCO)ncc1N(C)C(=O)C(C)(C)c1cc(C(F)(F)F)cc(C(F)(F)F)c1 [Example 291, N-{6′-[Bis-(2-hydroxy-ethyl)-amino]-2-methyl-[3,4′]bipyridinyl-3′-yl}-2-(3,5-bis-trifluoromethyl-phenyl)-N-methyl-isobutyramide] | 3.31 | 7.76 | – | –
9 | CN(C(=O)C(C)(C)c1cc(C(F)(F)F)cc(C(F)(F)F)c1)c1cnc(N2CCC[C@H]2CO)cc1-c1cc(Cl)ccc1Cl [Example 284, (S)-2-(3,5-Bis-trifluoromethyl-phenyl)-N-[4-(2,5-dichloro-phenyl)-6-(2-hydroxymethyl-pyrrolidin-1-yl)-pyridin-3-yl]-N-methyl-isobutyramide] | 1.48 | 1.45 | – | –
10 | C[C@H](CO)Nc1cc(-c2ccccc2Cl)c(N(C)C(=O)C(C)(C)c2cc(C(F)(F)F)cc(C(F)(F)F)c2)cn1 [Example 80, (R)-2-(3,5-Bis-trifluoromethyl-phenyl)-N-[4-(2-chloro-phenyl)-6-(2-hydroxy-1-methyl-ethylamino)-pyridin-3-yl]-N-methyl-isobutyramide] | – | – | 1.26 | 8.91
11 | CN(C(=O)C(C)(C)c1cc(C(F)(F)F)cc(C(F)(F)F)c1)c1cnc(N2C[C@@H](O)C[C@H]2CO)cc1-c1ccc(Cl)cc1Cl [Example 236, (2S,4S)-2-(3,5-Bis-trifluoromethyl-phenyl)-N-[4-(2,4-dichloro-phenyl)-6-(4-hydroxy-2-hydroxymethyl-pyrrolidin-1-yl)-pyridin-3-yl]-N-methyl-isobutyramide] | 1.78 | 1.78 | – | –
12 | CCCN(CCO)c1cc(-c2ccccc2C)c(N(C)C(=O)C(C)(C)c2cc(C(F)(F)F)cc(C(F)(F)F)c2)cn1 [Example 119, 2-(3,5-Bis-trifluoromethyl-phenyl)-N-{6-[(2-hydroxy-ethyl)-propyl-amino]-4-o-tolyl-pyridin-3-yl}-N-methyl-isobutyramide] | – | – | 3.98 | 2.29
13 | CN(C)c1ccc(-c2cc(N3C[C@H](O)C[C@H]3CO)ncc2N(C)C(=O)C(C)(C)c2cc(C(F)(F)F)cc(C(F)(F)F)c2)cc1 [Example 204, (2S,4R)-2-(3,5-Bis-trifluoromethyl-phenyl)-N-[4-(4-dimethylamino-phenyl)-6-(4-hydroxy-2-hydroxymethyl-pyrrolidin-1-yl)-pyridin-3-yl]-N-methyl-isobutyramide] | – | – | 15.1 | 14.8
14 | CN(C(=O)C(C)(C)c1cc(C(F)(F)F)cc(C(F)(F)F)c1)c1cnc(N2CCC(CO)C2)cc1-c1ccccc1Cl (racemic) [Example 171, (RS)-2-(3,5-Bis-trifluoromethyl-phenyl)-N-[4-(2-chloro-phenyl)-6-(3-hydroxymethyl-pyrrolidin-1-yl)-pyridin-3-yl]-N-methyl-isobutyramide] | – | – | 3.72 | 24.5
15 | Cc1ccccc1-c1cc(N2C[C@@H](O)[C@@H](O)C2)ncc1N(C)C(=O)C(C)(C)c1cc(C(F)(F)F)cc(C(F)(F)F)c1 [Example 184, (3R,4S)-2-(3,5-Bis-trifluoromethyl-phenyl)-N-[6-(3,4-dihydroxy-pyrrolidin-1-yl)-4-o-tolyl-pyridin-3-yl]-N-methyl-isobutyramide] | – | – | 1.23 | 20
16 | Cc1ccccc1-c1cc(N2CCOC[C@H]2CO)ncc1N(C)C(=O)C(C)(C)c1cc(C(F)(F)F)cc(C(F)(F)F)c1 [Example 175] | – | – | 1.62 | 2.14
17 | CC(O)CN(CC(C)O)c1cc(-c2ccccc2Cl)c(N(C)C(=O)C(C)(C)c2cc(C(F)(F)F)cc(C(F)(F)F)c2)cn1 (centres unmarked) [Example 124, N-[6-[Bis-(2-hydroxy-propyl)-amino]-4-(2-chloro-phenyl)-pyridin-3-yl]-2-(3,5-bis-trifluoromethyl-phenyl)-N-methyl-isobutyramide] | – | – | 2.63 | 13.8
18 | Cc1cc(F)ccc1-c1cc(N2CC(F)(F)C[C@H]2CO)ncc1N(C)C(=O)C(C)(C)c1cc(C(F)(F)F)cc(C(F)(F)F)c1 [Example 300, (S)-2-(3,5-Bis-trifluoromethyl-phenyl)-N-[6-(4,4-difluoro-2-hydroxymethyl-pyrrolidin-1-yl)-4-(4-fluoro-2-methyl-phenyl)-pyridin-3-yl]-N-methyl-isobutyramide] | 0.955 | 0.49 | – | –
19 | CN(C(=O)C(C)(C)c1cc(C(F)(F)F)cc(C(F)(F)F)c1)c1cnc(N(CCO)CCO)cc1-c1ccccc1Cl [Example 82, N-[6-[Bis-(2-hydroxy-ethyl)-amino]-4-(2-chloro-phenyl)-pyridin-3-yl]-2-(3,5-bis-trifluoromethyl-phenyl)-N-methyl-isobutyramide] | – | – | 0.933 | 0.813
20 | CC(=O)N(C)[C@@H]1CCN(c2cc(-c3ccc(F)cc3C)c(N(C)C(=O)C(C)(C)c3cc(C(F)(F)F)cc(C(F)(F)F)c3)cn2)C1 [Example 101, (R)-N-[6-[3-(Acetyl-methyl-amino)-pyrrolidin-1-yl]-4-(4-fluoro-2-methyl-phenyl)-pyridin-3-yl]-2-(3,5-bis-trifluoromethyl-phenyl)-N-methyl-isobutyramide] | – | – | 1.7 | 9.33
21 | C[C@@H](O)[C@@H](CO)Nc1cc(-c2ccccc2Cl)c(N(C)C(=O)C(C)(C)c2cc(C(F)(F)F)cc(C(F)(F)F)c2)cn1 [Example 144, (1R,2R)-2-(3,5-Bis-trifluoromethyl-phenyl)-N-[4-(2-chloro-phenyl)-6-(2-hydroxy-1-hydroxymethyl-propylamino)-pyridin-3-yl]-N-methyl-isobutyramide] | – | – | 3.63 | 1.2
22 | Cc1ccccc1-c1cc(N2CCC[C@H]2CO)ncc1N(C)C(=O)C(C)(C)c1cc(F)cc(C(F)(F)F)c1 [Example 13, (S)-2-(3-Fluoro-5-trifluoromethyl-phenyl)-N-[6-(2-hydroxymethyl-pyrrolidin-1-yl)-4-o-tolyl-pyridin-3-yl]-N-methyl-isobutyramide] | – | – | 2.19 | 1.55
